According to US20240381872A1, “SUBSTITUTED 2,3-DIHYDRO[1,3]THIAZOLO[4,5-B]PYRIDINES, SALTS THEREOF AND THEIR USE AS HERBICIDALLY ACTIVE SUBSTANCES” (BAYER AKTIENGESELLSCHAFT, priority 2021, published 2024):

How the values were obtained:
Format in all cases: in vivo
[1] = system: Echinochloa crus-galli (ECHCG); assay: Herbicidal post-emergence action, section B (Table B3); details: rated visually after about 3 weeks; for pest or weed control at 1280 g/ha: Echinochloa crus-galli, 504 h, read-out: post-emergence activity against ECHCG in %
Method in brief: (§1)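 Activity was scored visually as percent of untreated controls about 3 weeks after spraying, where 100% meant dead plants and 0% meant no difference. Plants were treated at the one-leaf stage with WP or EC formulations in water containing 0.5% additive, applied at 600 liters per hectare.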

[2] = system: Polygonum convolvulus (POLCO); assay: Herbicidal post-emergence action, section E (Table E7); details: visual assessment ca. 3 weeks after spraying; for post-emergence activity against POLCO in % / pest or weed control at 320 g/ha: application rate 320 g/ha; for pest or weed control at 80 g/ha / pest or weed control at 320 g/ha: Fallopia convolvulus, 504 h, read-out: post-emergence activity against POLCO in %; for pest or weed control at 80 g/ha: application rate 80 g/ha
Method in brief: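 Scoring was visual, in percent relative to untreated plants, about three weeks after treatment. Test plants had been sprayed on their green parts at the single-leaf stage with an aqueous formulation including 0.5% additive, applied at 600 l water/ha.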

[3] = system: Setaria viridis (SETVI); assay: Herbicidal post-emergence action, section B (Table B8); details: visual rating about 3 weeks after treatment vs untreated controls; for post-emergence activity against SETVI in % / pest or weed control at 1280 g/ha: application rate 1280 g/ha
Method in brief: as §1

[4] = system: Stellaria media (STEME); assay: Herbicidal pre-emergence action, section A (Table A9); details: for pest or weed control at 320 g/ha: Stellaria media, 504 h, read-out: pre-emergence activity against STEME in %
Method in brief: (§2)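 In this greenhouse test, sown seeds under soil cover received the compounds as suspensions or emulsions, with 0.5% additive, at 600 l water/ha before emergence. Damage was assessed by eye after about 3 weeks, compared with untreated controls.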

[5] = system: Veronica persica (VERPE); assay: Herbicidal pre-emergence action, section C (Table C10); details: visual grading after ca. 3 weeks
Source text: Seeds of mono- and dicotyledonous weed plants and crop plants were sown, in plastic or organic planting pots, in sandy loam and covered with soil. The compounds according to the invention, formulated in the form of wettable powders (WP) or as emulsifiable concentrates (EC), were applied to the surface of the covering soil as aqueous suspension or emulsion, with the addition of 0.5% of an additive, at an application rate of 600 l of water/ha (converted). Following treatment, the pots were placed in a greenhouse and kept under optimum growth conditions for the test plants. The visual grading of the damage to the test plants was carried out after ca. 3 weeks in comparison to untreated controls (herbicidal effect in percent (%): 100% effect=plants have died off, 0% effect=as control plants).

[6] = system: Lolium rigidum (LOLRI); assay: Herbicidal pre-emergence action, section A (Table A5); details: visual grading after ca. 3 weeks vs untreated controls
Method in brief: as §2

[7] = system: Triticum aestivum (TRZAS); assay: Post-emergence effects on crop plants, section F (Table F2); details: application rate 80 g/ha; for post-emergence activity against TRZAS in %: crop plant damage; for percent crop plant damage (wheat, post-emergence) at 80 g/ha: Triticum aestivum, 504 h, read-out: post-emergence activity against TRZAS in %
Method in brief: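 After sowing in sandy loam and 2–3 weeks' greenhouse growth, single-leaf plants received foliar sprays (WP or EC, 0.5% additive, 600 l/ha water, ≤320 g/ha). Around 3 weeks on, herbicidal effect was estimated by eye, 0% meaning like controls and 100% meaning plants died.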

[8] = system: Glycine max (GLXMA); assay: Pre-emergence effects on crop plants, section D (Table D4); details: visual grading after ca. 3 weeks
Method in brief: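 Seeds sown in sandy loam and covered with soil; WP or EC formulations applied to the covering soil surface as aqueous suspension/emulsion with 0.5% additive at 600 l water/ha, at 320 g/ha or below. Greenhouse growth; visual damage scored after ca. 3 weeks versus untreated controls (0% = as control, 100% = dead).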

[9] = system: Digitaria sanguinalis (DIGSA); assay: Herbicidal pre-emergence action, section C (Table C12); details: visual grading after ca. 3 weeks; for pre-emergence activity against DIGSA in %: application rate 320 g/ha; for pest or weed control at 80 g/ha: Digitaria sanguinalis, pre-emergence, 504 h, application rate 80 g/ha, read-out: pre-emergence activity against DIGSA in %
Method in brief: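 Greenhouse pre-emergence test on sandy loam: spray of formulated compound onto covering soil at 600 l water/ha, then percent damage judged by eye after ca. 3 weeks relative to untreated pots.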

[10] = Setaria viridis, post-emergence, 504 h, read-out: post-emergence activity against SETVI in %
[11] = Veronica persica, pre-emergence, 504 h, application rate 320 g/ha, read-out: pre-emergence activity against VERPE in %
[12] = Lolium rigidum, pre-emergence, 504 h, application rate 320 g/ha, read-out: pre-emergence activity against LOLRI in %

SMILES	post-emergence activity against POLCO in % [2]	post-emergence activity against SETVI in % [3]	post-emergence activity against TRZAS in % [7]	pre-emergence activity against GLXMA in % (crop plant damage) ([8]; application rate 80 g/ha)	pre-emergence activity against DIGSA in % [9]	pre-emergence activity against GLXMA in % (crop plant damage) ([8]; application rate 320 g/ha)	pest or weed control at 1280 g/ha ([1]; application rate 1280 g/ha)	pest or weed control at 80 g/ha [2]	pest or weed control at 320 g/ha ([4]; application rate 320 g/ha)	percent crop plant damage (wheat, post-emergence) at 80 g/ha [7]	pest or weed control at 80 g/ha [9]	pest or weed control at 320 g/ha [5, 11]	further results
Cc1cc2c(nc1-c1ccccc1F)N(S(=O)(=O)Cc1ccc(F)cc1)CS2 [Example I-122]	90%	90%	20%	10%	100%								post-emergence activity against ECHCG in % ([1]; application rate 1280 g/ha): 100%; pre-emergence activity against STEME in % ([4]; application rate 320 g/ha): 90%; pre-emergence activity against VERPE in % ([5]; application rate 320 g/ha): 80%; pre-emergence activity against LOLRI in % ([6]; application rate 320 g/ha): 100%
BN1CSc2cc(Br)c(-c3ccccc3C)nc21 [Example I-011]	80%	90%	0%		100%	0%							post-emergence activity against ECHCG in % ([1]; application rate 1280 g/ha): 90%; pre-emergence activity against STEME in % ([4]; application rate 1280 g/ha): 100%; pre-emergence activity against LOLRI in % ([6]; application rate 320 g/ha): 100%
CCS(=O)(=O)N1CSc2cc(C)c(-c3ccccc3F)nc21 [Example I-060, 3-(ethylsulfonyl)-5-(2-fluorophenyl)-6-methyl-2,3-dihydro[1,3]thiazolo[4,5-b]pyridine]				0%			90%	90%	90%	0%	100%		pest or weed control at 320 g/ha ([3]; Setaria viridis, post-emergence, 504 h, application rate 320 g/ha, read-out: post-emergence activity against SETVI in %): 90%; pest or weed control at 80 g/ha ([5]; Veronica persica, pre-emergence, 504 h, application rate 80 g/ha, read-out: pre-emergence activity against VERPE in %): 90%; pest or weed control at 1280 g/ha ([6]; Lolium rigidum, pre-emergence, 504 h, application rate 1280 g/ha, read-out: pre-emergence activity against LOLRI in %): 100%
Cc1cc2c(nc1-c1cccc(F)c1F)NCS2 [Example I-029, 5-(2,3-difluorophenyl)-6-methyl-2,3-dihydro[1,3]thiazolo[4,5-b]pyridine]				10%			90%		90%	10%	90%	80%	pest or weed control at 320 g/ha [2]: 90%; pest or weed control at 1280 g/ha [3, 10]: 90%; pest or weed control at 320 g/ha [6, 12]: 100%
CCOCCS(=O)(=O)N1C[S+]([O-])c2cc(C)c(-c3ccccc3F)nc21 (stereo not shown) [Example I-127]				20%			90%	90%	90%	0%	100%	90%	pest or weed control at 1280 g/ha [3, 10]: 90%; pest or weed control at 320 g/ha [6, 12]: 100%
Fc1ccccc1-c1nc2c(cc1Br)SCN2 [Example I-001, 6-bromo-5-(2-fluorophenyl)-2,3-dihydro[1,3]thiazolo[4,5-b]pyridine]						0%				0%		80%	pest or weed control at 320 g/ha [2]: 90%
Cc1ccccc1-c1nc2c(cc1C)SCN2C(=O)C1(C)CC(Cl)=NO1 (stereo not shown) [Example I-137]	80%	90%	0%		100%								post-emergence activity against ECHCG in % ([1]; application rate 320 g/ha): 90%; pre-emergence activity against STEME in % ([4]; application rate 1280 g/ha): 100%; pre-emergence activity against VERPE in % ([5]; application rate 80 g/ha): 80%; pre-emergence activity against LOLRI in % ([6]; application rate 1280 g/ha): 100%
Cc1cc2c(nc1-c1ccccc1Cl)NCS2 [Example I-049, 5-(2-chlorophenyl)-6-methyl-2,3-dihydro[1,3]thiazolo[4,5-b]pyridine]						0%		80%		10%	90%	80%	
